In PMC6713091, “Exploring new structural features of the 4-[(3-methyl-4-aryl-2,3-dihydro-1,3-thiazol-2-ylidene)amino]benzenesulphonamide scaffold for the inhibition of human carbonic anhydrases” (Journal of Enzyme Inhibition and Medicinal Chemistry, 2019):

Assays:
[1] = target: hCA II (Homo sapiens, UniProt P00918); experiment: Carbonic anhydrase inhibition assay, hCA II; assay type: biochemical
Experimental: (§1) The purification of cytosolic CA isoenzymes (CA I and CA II) was previously described with a simple one-step method by a Sepharose-4B-L tyrosine-sulphanilamide affinity chromatography.
(§2) The protein quantity in the column effluents was determined spectrophotometrically at 280 nm. Sodium dodecyl sulphate polyacrylamide gel electrophoresis (SDS-PAGE) was applied with a Bio-Rad Mini Gel system Mini-PROTEINVR system (Hercules, CA), Bio-Rad Laboratories, Inc., China after purification of both CA isoenzymes. Briefly, it was performed in acrylamide for the running (10%) and the stacking gel (3%) contained SDS (0.1%), respectively. Activities of CA isoenzymes were determined according to a method by Verporte et al.[57]. The increase in absorbance of the reaction medium was spectrophotometrically recorded at 348 nm. Also, the quantity of protein was determined at 595 nm according to the Bradford method. Bovine serum albumin was used as standard protein. The IC50 values were obtained from activity (%) versus compounds plots. For calculation of KI values, three different concentrations were used. The Lineweaver–Burk curves were drawn and calculations were realised.

[2] = target: hCA IX (Homo sapiens, UniProt Q16790); experiment: Carbonic anhydrase inhibition assay, hCA IX; assay type: biochemical
Experimental: as §2

[3] = target: hCA I (Homo sapiens, UniProt P00915); experiment: Carbonic anhydrase inhibition assay, hCA I; assay type: biochemical
Experimental: as §1, §2

[4] = target: hCA XII (Homo sapiens, UniProt O43570); experiment: Carbonic anhydrase inhibition assay, hCA XII; assay type: biochemical
Experimental: as §2

hCA XII, sequence (O43570 25-354): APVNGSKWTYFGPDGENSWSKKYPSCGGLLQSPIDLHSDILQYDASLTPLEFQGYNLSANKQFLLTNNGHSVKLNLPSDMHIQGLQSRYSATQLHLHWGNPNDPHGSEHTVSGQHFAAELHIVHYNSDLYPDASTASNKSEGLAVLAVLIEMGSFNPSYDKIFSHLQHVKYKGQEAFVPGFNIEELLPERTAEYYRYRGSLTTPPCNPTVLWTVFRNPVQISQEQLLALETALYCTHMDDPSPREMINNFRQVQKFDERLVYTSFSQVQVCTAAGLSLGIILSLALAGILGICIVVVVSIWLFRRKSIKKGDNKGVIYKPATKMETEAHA
hCA I, sequence (P00915 whole entry): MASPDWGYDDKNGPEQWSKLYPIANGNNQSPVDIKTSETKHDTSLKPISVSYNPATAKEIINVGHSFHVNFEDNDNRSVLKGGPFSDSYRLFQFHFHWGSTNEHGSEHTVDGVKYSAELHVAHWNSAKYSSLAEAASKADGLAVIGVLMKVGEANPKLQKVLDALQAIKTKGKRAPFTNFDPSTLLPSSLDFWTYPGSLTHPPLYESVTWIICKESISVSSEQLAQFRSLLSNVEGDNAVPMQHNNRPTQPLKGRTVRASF

| Compound | melting point | also measured |
| --- | --- | --- |
| COc1ccc(-c2cs/c(=N\c3ccc(S(N)(=O)=O)cc3)n2C)cc1 [EMAC8002k] | 243 to 244 °C | – |
| Cn1c(-c2ccc(Cl)cc2Cl)cs/c1=N\c1ccc(S(N)(=O)=O)cc1 [EMAC8002e] | 256 to 257 °C | – |
| Cn1c(-c2ccc(Cl)cc2)cs/c1=N\c1ccc(S(N)(=O)=O)cc1 [EMAC8002b] | 241 to 242 °C | – |
| Cn1c(-c2ccc([N+](=O)[O-])cc2)cs/c1=N\c1ccc(S(N)(=O)=O)cc1 [EMAC8002h] | 244 to 245 °C | – |
| Cn1c(-c2cccc([N+](=O)[O-])c2)cs/c1=N\c1ccc(S(N)(=O)=O)cc1 [EMAC8002d] | 235 to 236 °C | – |
| Cn1c(-c2ccc(C#N)cc2)cs/c1=N\c1ccc(S(N)(=O)=O)cc1 [EMAC8002f] | 237 to 238 °C | – |
| Cn1c(-c2ccc(F)cc2)cs/c1=N\c1ccc(S(N)(=O)=O)cc1 [EMAC8002c] | 230 to 233 °C | – |
| Cn1c(-c2ccc(-c3ccccc3)cc2)csc1=Nc1ccc(S(N)(=O)=O)cc1 [EMAC8002i] | 254 to 255 °C | Ki [1]: 503 nM; Ki [2]: 1390 nM; Ki [3]: 8910 nM; Ki [4]: 9.5 nM; selective index hCA II/hCA XII ([4]; ratio of Ki hCA II to Ki hCA XII): higher than 52 |
| Cn1c(-c2ccc(F)cc2F)cs/c1=N\c1ccc(S(N)(=O)=O)cc1 [EMAC8002g] | 239 to 240 °C | – |
| Cc1ccc(-c2cs/c(=N\c3ccc(S(N)(=O)=O)cc3)n2C)cc1 [EMAC8002j] | 252 to 254 °C | – |
| Cn1c(-c2ccc(Br)cc2)cs/c1=N\c1ccc(S(N)(=O)=O)cc1 [EMAC8002a] | 256 to 259 °C | – |
| Cn1c(-c2ccccc2)cs/c1=N\c1ccc(S(N)(=O)=O)cc1 [EMAC8002m] | 252 to 253 °C | – |
